According to PMC8027415, “Plant resistome profiling in evolutionary old bog vegetation provides new clues to understand emergence of multi-resistance” (The ISME Journal, 2020):

Tested on: T1, Mm3 (β-lactamase from Moss metagenome clone 3; blaMm3)
T1 construct: mix of tagged 35 kDa and 32 kDa species lacking tag
Assay: spectrophotometric hydrolysis at […] nm, initial rates
Format: biochemical, uncultured bacterium
Settings: 20 mM sodium phosphate, 0.2 M NaCl, pH 7.4, 30 °C

Row | SMILES | Km (fitted with the Hill equation (half-saturation constant)) [µM] | Km (fitted with the Michaelis-Menten equation) [µM]
1 | CC1(C)S[C@@H]2[C@H](NC(=O)[C@H](N)c3ccccc3)C(=O)N2[C@H]1C(=O)O [ampicillin] | 271 ± 16.4 | 
2 | CC1(C)S[C@@H]2[C@H](NC(=O)C(C(=O)O)c3ccccc3)C(=O)N2[C@H]1C(=O)O (some centres unmarked) [carbenicillin] |  | 400 ± 42.7
